The structures appear in SMILES notation. Activity calls are given as the source filed them.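 Rule for the calls: active = compounds giving half or more protection of infected cells from virus-caused growth loss, again on retest; inactive = the rest.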

For the assay, the system named is CEM cells HIV-1 protection, formazan growth assay. Nature of the assay: NCI AIDS Antiviral Assay. The note with it: for IC50: measured here: growth of uninfected CEM cells. The gist of the method:
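Steps: treat uninfected and HIV-1-infected human CEM cells at five drug levels; quantify growth by soluble formazan; retest any compound reaching 50% protection; classify actives from the retest.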

Turning to `Cc1[nH]n(-c2ncc(C#N)c(=O)[nH]2)c(=O)c1CCO`, the EC50 (in general, the concentration giving half of the maximal effect) was over 200 µM and the IC50 (commonly the midpoint of a concentration-inhibition curve) was over 200 µM.
For `Cn1c(=O)c2c(=O)c(=O)[nH][nH]c2n(C)c1=O`, the EC50 is over 200 µM and the IC50 was over 200 µM.
As for `CN(C)CCNC1c2ccccc2CCc2ccccc21`, the result was inactive.
As for `Cc1cn(COCC[Se]c2ccccc2)c(=O)[nH]c1=O`, the EC50 is 186 µM and the concentration for half-maximal inhibition (IC50) was over 200 µM.
As for `O=c1nc2c(c(-c3cccc(Cl)c3)[nH]1)COC/C2=C\c1cccc(Cl)c1`, the outcome was inactive.
Take `CC1(c2ccccc2)CC12C(=O)NC(=O)NC2=O` (stereo not given): the EC50 was over 107 µM and the IC50 is over 107 µM.
Regarding `N#C/C(=C/c1cccs1)c1cccs1`, the EC50 is over 200 µM and the half-inhibitory concentration (IC50) was over 200 µM.
For the compound `CCOC1(OCC)CS(=O)(=O)C1c1ccccc1` (stereo not given), the EC50 was over 661 µM and the half-maximal inhibitory concentration (IC50) was over 661 µM.
As to `COC(=O)C(CC(C)C)NC(=O)NC12CC3CC(CC(F)(C3)C1)C2` (stereo not given), the EC50 was over 75.9 µM and the IC50 is over 75.9 µM.
As to `CN(C)CCN(C)P12(Oc3ccccc3O1)Oc1c(Cl)c(Cl)c(Cl)c(Cl)c1O2`, the EC50 is over 43.7 µM and the 50% inhibitory concentration (IC50) was found to be 24.5 µM.
`Cc1nc2ccccc2c(=O)n1-c1ccccc1`: the EC50 was over 1050 µM and the 50% inhibitory concentration (IC50) is 631 µM.
As for `O=c1ccc2ccc(O)c3c4c(=O)ccc5ccc(O)c(c1c23)c54`, the outcome was inactive.
Turning to `O=C1NC(N2CCOCC2)=N/C1=C\c1ccc(Cl)cc1`, the EC50 was over 200 µM and the IC50 was over 200 µM.
Turning to `Cc1ccc(S(=O)(=O)O/N=C2\CCC\C2=C/c2ccccc2)cc1`, the result was inactive.
Consider `Cc1ccc(C)c(NC(=O)CC/C(=N\NC(=O)c2c(O)ccc3ccccc23)C(C)C(=O)c2ccc(O)cc2)c1` (stereo not given), for which the concentration for a half-maximal effect (EC50) was over 27.5 µM and the 50% inhibitory concentration (IC50) was 14.5 µM.
Taken in the same sequence, the figures for `CN1CCN(C(=O)CCN2c3ccccc3Sc3ccccc32)CC1` were over 513 µM and 117 µM.
The like results for `CN1C/C(=C\c2ccncc2)C(=O)/C(=C/c2ccncc2)C1` were, in that order, 52.5 µM and over 200 µM.
On to `CCOC(=O)[C@]12C(=C(c3ccccc3)O[C@H]3C=CCC[C@H]31)C(=O)C(=O)N2c1ccccc1`, for which the EC50 was over 200 µM and the IC50 was 75.9 µM.
In the case of `COC(=O)C1=C2Nc3ccccc3[C@@]23CCN(Cc2ccccc2)C3C[C@H]1C1=CC(OC)OC1OC` (stereo not given in full), the EC50 is over 25.7 µM and the IC50 was found to be 15.1 µM.
For `CCCNCCOc1nc(Cl)c(Cl)cc1Cl`, the EC50 was over 200 µM and the 50% inhibitory concentration (IC50) is 126 µM.
Take `Nc1nc(N)nc(-c2ccccc2-c2nc(N)nc(N)n2)n1`: the EC50 is over 200 µM and the 50% inhibitory concentration (IC50) was over 200 µM.
Turning to `COCN1C(=O)[C@@H]2CCCN2C(=O)c2cc([N+](=O)[O-])ccc21`, the EC50 was over 200 µM and the IC50 worked out at 102 µM.
The like results for `CC(=O)c1cc2cc3c4c(c2oc1=O)CCCN4CCC3` were, in that order, over 25.7 µM and over 25.7 µM.
The like results for `CCCCc1c2c(nc3c1CCCC3=O)C(=O)CCC2` were, in that order, over 5.37 µM and over 5.37 µM.
Taken in the same sequence, the figures for `CCCCCCCCCCCCCCC(C(=O)O)C(=O)O` were over 832 µM and 398 µM.
As for `O=C(CCCC[n+]1ccccc1)Sc1ccccc1C(=O)Nc1ccc(S(=O)(=O)Nc2ccccn2)cc1`, the half-maximal effective concentration (EC50) was 26.9 µM and the half-inhibitory concentration (IC50) came out at 115 µM.
For `Cc1[nH]c2c(ccc3c2ccc2c(=O)c(C)c(C)[nH]c23)c(=O)c1C`, the EC50 is over 200 µM and the IC50 came to 138 µM.
`N#Cc1c(=O)c2ccccc2n2c1[nH]c1ccccc12`: the EC50 was over 200 µM and the concentration for half-maximal inhibition (IC50) was found to be 77.6 µM.
On to `CCCCN=C(OC1C=CCCC1)SC` (stereo not given), for which the EC50 is over 200 µM and the IC50 was found to be 155 µM.
With `O=C(Cn1cc(-c2ccccc2)nn1)NC1CCCC1`, the EC50 was over 200 µM and the 50% inhibitory concentration (IC50) is over 200 µM.
As to `CCCc1ccc(N=Cc2cc(OC)c(OC)c(OC)c2)cc1`, the EC50 is over 31.6 µM and the IC50 was over 31.6 µM.
For `O=S(=O)(O)c1cc(O)c2ccc3c(S(=O)(=O)O)cc(S(=O)(=O)O)c4ccc1c2c34`, the outcome was inactive.
In the case of `COc1cc(/C=C/c2csnn2)cc(OC)c1OC`, the EC50 is over 468 µM and the half-inhibitory concentration (IC50) is 117 µM.
Consider `COC(=O)Cc1c(-c2[nH]c3ccccc3c2CC(=O)OC)[nH]c2ccccc12`, for which the outcome was inactive.
As for `N#Cc1c2c(c(N=P(c3ccccc3)(c3ccccc3)c3ccccc3)n3c1nc1ccccc13)CCCC2`, the EC50 was over 1.05 µM and the 50% inhibitory concentration (IC50) is over 1.05 µM.
Turning to `CC1CCC2CC(=O)OC([C@@H]3C(=O)O[C@@H](C4=CCCC4)C4C(C)CCC43)C12` (stereo not given in full), the EC50 is over 10 µM and the IC50 is over 10 µM.
Consider `COc1ccc(C(=O)C(C(=O)CCC(=O)Nc2cccc(Cl)c2)c2ccc(OC)cc2)cc1` (stereo not given), for which the EC50 is over 15.5 µM and the half-inhibitory concentration (IC50) was over 15.5 µM.
On to `OC1[C@H]([C@H]2CCCC[C@@H]2O)CCC[C@@H]1[C@@H]1CCCC[C@H]1O` (stereo not given in full), for which the EC50 is over 170 µM and the 50% inhibitory concentration (IC50) is over 170 µM.
For the compound `COc1ccc(OC)c2c1C=C[C@H](C1(C)SCCS1)C2C(C)=O` (stereo not given in full), the EC50 was over 200 µM and the IC50 was determined as 8.91 µM.
With `CN(C)CC/C(=N\Nc1ccccc1)c1ccccc1`, the result was inactive.
Take `CO/C(=C/C(=O)c1ccccc1)C(=O)c1ccccc1`: the EC50 is over 115 µM and the IC50 worked out at 61.7 µM.
On to `CN(C)CCSc1nnc(-c2cccs2)c2ccccc12`, for which the EC50 was over 794 µM and the IC50 worked out at 40.7 µM.
`C=CCCC1CCCCNC1=S` (stereo not given): the EC50 was over 200 µM and the 50% inhibitory concentration (IC50) was over 200 µM.
On to `COC1C(=[N+]=[N-])C(=O)NC(=O)N1C1OC(COC(c2ccccc2)(c2ccccc2)c2ccccc2)C(O)C1O` (stereo not given), for which the EC50 was over 18.2 µM and the IC50 was over 18.2 µM.
In the case of `CSc1nc(NC2OCC(O)C(O)C2O)c(N)c(=O)[nH]1` (stereo not given), the outcome was inactive.
For the compound `COC(=O)c1cc(C(=CCCN=[N+]=[N-])c2cc(Cl)c(OC)c(C(=O)OC)c2)cc(Cl)c1OC`, the half-maximal effective concentration (EC50) is 33.1 µM and the IC50 stood at 34.7 µM.
For the compound `CC(=O)Nc1cc(S(=O)(=O)O)cc2cc(S(=O)(=O)O)c(N=Nc3ccc(C(=O)Nc4ccc(S(=O)(=O)O)cc4)cc3)c(O)c12`, the outcome was inactive.
Consider `CCN(CC)c1ccc(/C=C2/C=Cc3ccccc32)cc1`, for which the EC50 is over 7.24 µM and the IC50 was over 7.24 µM.
Consider `CCO[C@H]1OC(=O)[C@@H]2C(c3ccc(F)cc3)=NO[C@H]12`, for which the EC50 was over 135 µM and the IC50 was over 135 µM.
Take `CCCC[C@H]1[C@@H](OCOc2ccccc2)COC(=O)N1[C@H](C)c1ccccc1`: the EC50 is over 200 µM and the IC50 was 21.4 µM.
The like results for `CC(C)(O)[C@@H]1CCC(C)([C@H]2[C@@H](O)CC3(C)C4CC(OC5OC(CO)C(O)C(O)C5O)C5C(C)(C)[C@@H](OC6OCC(O)C(O)C6O)CC[C@@]56C[C@@]46CC[C@]23C)O1` (stereo not given in full) were, in that order, over 120 µM and over 120 µM.
As to `O=C(O)/C=C/c1ccc2c(c1)CC1(Cc3ccccc3C1)C2`, the EC50 is over 200 µM and the IC50 was 49 µM.

Source of the values: PubChem BioAssay AID179 (DTP/NCI, 2004).
